Data reported in ChEMBL document CHEMBL1201862, “PubChem BioAssay data set” (2004).
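96-well plates; 48 h exposure; 5 concentrations. Endpoints by linear interpolation between flanking doses. Not reached: highest tested concentration assigned. The concentration for 50% growth inhibition is given as GI50.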 Activity calls are given as the source filed them. Cut-off read from the data, not from the text of the source: active = GI50 up to about 1.1 µM and inactive = higher.

Legend:
Assay in all cases: NCI anticancer screen, dose series, 48 h
[1] = tested on: SF-295
[2] = tested on: RPMI-8226
[3] = tested on: K562
[4] = tested on: HOP-92
[5] = tested on: UACC-62
[6] = tested on: SNB-75
[7] = tested on: SF-268
[8] = tested on: OVCAR-8
[9] = tested on: SW-620
[10] = tested on: SK-MEL-28
[11] = tested on: LOX IMVI
[12] = tested on: UO-31
[13] = tested on: SF-539
[14] = tested on: NCI/ADR-RES
[15] = tested on: HCT-116
[16] = tested on: KM12
[17] = tested on: OVCAR-3
[18] = tested on: SK-MEL-5
[19] = tested on: CCRF-CEM
[20] = tested on: SNB-19

Measured: GI50

CCCCN(CCCC)c1ccc(/N=N/c2ccc(S(=O)(=O)O)cc2)cc1
inactive: [1] 40.9 µM | [2] 20.4 µM | [3] 26.9 µM | [4] 7 µM | [5] > 100 µM | [6] 11.7 µM | [7] > 100 µM | [8] 22 µM | [9] 33 µM | [10] 81.3 µM | [11] 18.9 µM | [12] 72.3 µM | [13] 16.7 µM | [14] 24.4 µM | [15] 15.6 µM | [16] 12.8 µM | [17] 30.1 µM | [18] 16.2 µM | [19] 18.4 µM | [20] 75.9 µM

O=C(NN1C(=O)CS(=O)(=O)C1c1ccc(C(F)(F)F)cc1)c1ccncc1 (stereo not drawn)
inactive: [1] > 100 µM | [2] > 100 µM | [4] > 100 µM | [6] > 100 µM | [7] > 100 µM | [9] > 100 µM | [10] > 100 µM | [11] > 100 µM | [15] > 100 µM | [16] > 100 µM | [18] > 100 µM | [19] > 100 µM | [20] > 100 µM

CC1(C)N/C(=C\C=O)C(C)(C)N1O
inactive: [1] > 100 µM | [2] > 100 µM | [3] > 100 µM | [4] > 100 µM | [5] > 100 µM | [7] > 100 µM | [8] > 100 µM | [9] > 100 µM | [10] > 100 µM | [11] > 100 µM | [12] > 100 µM | [13] > 100 µM | [14] > 100 µM | [15] > 100 µM | [16] > 100 µM | [17] > 100 µM | [18] > 100 µM | [19] > 100 µM | [20] > 100 µM

O=C(OC(=O)n1ccc2ccccc21)n1ccc2ccccc21
inactive: [1] > 92.3 µM | [2] > 100 µM | [3] > 100 µM | [4] > 100 µM | [5] > 100 µM | [6] 84.1 µM | [7] > 100 µM | [8] > 100 µM | [9] > 100 µM | [10] > 100 µM | [11] > 100 µM | [12] 75.7 µM | [13] > 100 µM | [14] > 100 µM | [15] > 100 µM | [16] > 100 µM | [17] > 100 µM | [18] > 100 µM | [19] > 100 µM | [20] > 100 µM

COc1cc2c(cc1OC)C(Cc1c3ccccc3cc3ccccc13)N(C)CC2 (stereo not drawn)
inactive: [1] 17.4 µM | [2] 13.9 µM | [3] 12.5 µM | [4] 11.4 µM | [5] 17.8 µM | [6] 14.4 µM | [7] 29 µM | [8] 26.5 µM | [9] 27 µM | [10] 20.2 µM | [11] 18 µM | [12] 13 µM | [13] 19.5 µM | [14] 24.7 µM | [15] 14.9 µM | [16] 16.3 µM | [17] 27.7 µM | [18] 17.3 µM | [19] 18.8 µM | [20] 22.2 µM

COc1ccc(-c2c(C#N)c(NC(=S)NC(=O)c3ccccc3)nc3c2CCCC3)cc1OC
inactive: [1] 56.6 µM | [2] 42 µM | [3] 29.6 µM | [5] 44.5 µM | [6] 22.3 µM | [7] 41.8 µM | [8] 48.5 µM | [9] 75.9 µM | [10] 61.4 µM | [11] 49.7 µM | [12] 35.2 µM | [13] 30.2 µM | [14] 56.4 µM | [15] > 100 µM | [16] > 100 µM | [17] 99.5 µM | [18] 34.6 µM | [19] 50.7 µM | [20] 68.2 µM

CC1(C)CCc2ccc(OCCC(=O)O)cc2O1
inactive: [1] > 100 µM | [2] > 100 µM | [3] > 100 µM | [4] > 100 µM | [5] > 100 µM | [6] 83.4 µM | [7] > 100 µM | [8] > 100 µM | [9] > 100 µM | [11] > 100 µM | [12] > 100 µM | [13] > 100 µM | [15] > 100 µM | [16] > 100 µM | [17] > 100 µM | [18] > 100 µM | [19] > 100 µM

CCOC(=O)/C(O)=C1\C(=O)N(C)C(=O)C1c1ccc(OC)c(OC)c1 (stereo not drawn)
inactive: [1] > 100 µM | [2] > 100 µM | [3] > 100 µM | [4] > 100 µM | [5] > 100 µM | [6] > 100 µM | [7] > 100 µM | [8] > 100 µM | [9] > 31.6 µM | [10] > 100 µM | [11] > 100 µM | [12] > 100 µM | [13] > 100 µM | [14] > 100 µM | [15] > 100 µM | [16] > 100 µM | [17] > 100 µM | [18] > 100 µM | [19] > 100 µM | [20] > 100 µM
